{
  "source": "patent US20260355176A1",
  "about": "(NICOVENTURES TRADING LIMITED, priority 2019, published 2026)",
  "key": {"[1]": {"experiment": "Nicotine and benzoic acid octanol-water partitioning in unbuffered water", "format": "physicochemical", "quoted_text": "The mobile phase was brought to pH 2.5 with H3PO4. The flow rate of the mobile phase was 1 mL/min, and the injection volume was 10 μL."}, "[2]": {"experiment": "Nicotine octanol-water partitioning with various ion pairing agents and quantities (benzoate, octanoate, decanoate)", "format": "physicochemical", "conditions": "pH 6.5, 1,000 ppm nicotine", "procedure": "A pH probe was submerged in the resulting liquid and HCl (0.05 M) was added under stirring to bring the solution to pH 6.5. The flask weight was then brought up to 100 grams with RO water. […] Partitioning was performed by removing aliquots (10 mL) of each solution and placing into separate 20 ml scintillation vials. Octanol (10 ml) was added to each vial. The vials were then placed on a wrist action shaker for 20 minutes. Following agitation, the vials were allowed to separate for 30 min, and an aliquot (100 μl) of each octanol layer was removed and diluted with 900 μl octanol in 2 mL GC/MS vials."}},
  "note": "Entries after “also recorded” stand apart in the source; their conditions may differ.",
  "data": [
    {"molecule": "O=C(O)c1ccccc1", "note": "[benzoic acid]", "values": [
      {"measurement": "concentration in octanol", "setting": "[1]; 1000 ppm nicotine, 1 molar equivalent sodium benzoate, unbuffered water", "result": 19.2, "unit": "ppm"},
      {"measurement": "benzoic acid molarity in octanol in terms of nicotine mass", "setting": "[1]; calculated as ppm nicotine", "result": 25.5, "unit": "ppm"}
    ]},
    {"molecule": "CCCCCCCCCC(=O)O", "note": "[decanoic acid]", "values": [
      {"measurement": "octanol-water partitioning, in words", "setting": "[2]", "result": "prone to becoming soapy during the vigorous mixing; also recorded: partition into octanol to an extent less than that expected by theory"}
    ]},
    {"molecule": "CN1CCCC1c1cccnc1", "note": "(centres unmarked) [nicotine, reference compound]", "values": [
      {"measurement": "% nicotine in octanol (FIG. 6)", "setting": "[2]; 10 eq. octanoic acid", "result": "~ 75%"},
      {"measurement": "% nicotine in octanol (FIG. 6)", "setting": "[2]; benzoic acid at same concentration (10 eq.)", "result": "~ 52%"}
    ]}
  ]
}
